Test results published in ChEMBL document CHEMBL3045115, “Synthesis and antimycobacterial activity of novel 4-[5-(substituted phenyl)-1-phenyl-4,5-dihydro-1H-3-pyrazolyl]-2-methylphenol derivatives” (2006).
In brackets after ≈: the same amount, converted by molar mass.

Tested on: Mycobacterium tuberculosis
Experiment: Antimycobacterial activity against isoniazid-resistant Mycobacterium tuberculosis H37Rv ATCC 27294 using alamar blue staining by broth microdilution assay
Assay type: functional

SMILES	MIC [µg/mL]
Cc1cc(C2=NN(c3ccccc3)C(c3cccc([N+](=O)[O-])c3)C2)ccc1O (configuration not stated)	1.96 (≈ 5.25 µM)
COc1ccc(C2CC(c3ccc(O)c(C)c3)=NN2c2ccccc2)cc1OC (configuration not stated)	1.16 (≈ 2.99 µM)
NNC(=O)c1ccncc1 [ISONIAZID]	0.63 (≈ 4.59 µM)
Cc1cc(C2=NN(c3ccccc3)C(c3ccc(F)cc3)C2)ccc1O (configuration not stated)	0.62 (≈ 1.79 µM)
Cc1cc(C2=NN(c3ccccc3)C(c3ccccc3Cl)C2)ccc1O (configuration not stated)	1 (≈ 2.76 µM)
Cc1cc(C2=NN(c3ccccc3)C(c3ccco3)C2)ccc1O (configuration not stated)	0.81 (≈ 2.54 µM)
Cc1cc(C2=NN(c3ccccc3)C(c3ccc(N(C)C)cc3)C2)ccc1O (configuration not stated)	0.84 (≈ 2.26 µM)
COc1ccc(C2CC(c3ccc(O)c(C)c3)=NN2c2ccccc2)cc1 (configuration not stated)	1.45 (≈ 4.05 µM)
Cc1cc(C2=NN(c3ccccc3)C(c3ccc(Cl)cc3)C2)ccc1O (configuration not stated)	1.24 (≈ 3.42 µM)
Cc1cc(C2=NN(c3ccccc3)C(c3c(Cl)cccc3Cl)C2)ccc1O (configuration not stated)	0.92 (≈ 2.32 µM)
COc1cc(C2CC(c3ccc(O)c(C)c3)=NN2c2ccccc2)cc(OC)c1OC (configuration not stated)	1.86 (≈ 4.44 µM)
Cc1cc(C2=NN(c3ccccc3)C(c3ccccc3)C2)ccc1O (configuration not stated)	1.6 (≈ 4.87 µM)
